# Where two headings read alike, the source gives them in different places.
# Assays:
# FAP = FAP (Homo sapiens (Human), UniProt Q12884); assay: FAP inhibition assay (recombinant enzyme, Z-Gly-Pro-AMC substrate); format: biochemical
# Method: (§1) PSMA binding affinities of the compounds were determined using a competitive inhibition assay as previously reported. […] FAP, prolyl endopeptidase (PREP), and […] (DPPIV) inhibition assays: Recombinant enzymes (FAP, PREP, DPPIV) were purchased from R&D Systems (Minneapolis, MN). […] Z-Gly-Pro-AMC was used as a substrate for FAP and PREP. H-Gly-Pro-AMC was used as a substrate for DPPIV. The recombinant enzyme (0.4 μg/mL) was incubated with varying amounts of the test articles in the presence of the designated substrate (80 μM) for 10 min at room temperature. Fluorescence intensity was measured with 380 nm excitation and 460 nm emission using the Cytation 5 Cell Imaging Multi-Mode Reader (BioTek, Winooski, VT). IC50 and Ki values were obtained using a sigmoidal dose-response function.
# PREP = PREP (Homo sapiens (Human), UniProt P48147); assay: PREP inhibition assay (recombinant enzyme, Z-Gly-Pro-AMC substrate); format: biochemical; conditions: for IC50: Table 4
# Sequence of PREP (P48147 whole entry): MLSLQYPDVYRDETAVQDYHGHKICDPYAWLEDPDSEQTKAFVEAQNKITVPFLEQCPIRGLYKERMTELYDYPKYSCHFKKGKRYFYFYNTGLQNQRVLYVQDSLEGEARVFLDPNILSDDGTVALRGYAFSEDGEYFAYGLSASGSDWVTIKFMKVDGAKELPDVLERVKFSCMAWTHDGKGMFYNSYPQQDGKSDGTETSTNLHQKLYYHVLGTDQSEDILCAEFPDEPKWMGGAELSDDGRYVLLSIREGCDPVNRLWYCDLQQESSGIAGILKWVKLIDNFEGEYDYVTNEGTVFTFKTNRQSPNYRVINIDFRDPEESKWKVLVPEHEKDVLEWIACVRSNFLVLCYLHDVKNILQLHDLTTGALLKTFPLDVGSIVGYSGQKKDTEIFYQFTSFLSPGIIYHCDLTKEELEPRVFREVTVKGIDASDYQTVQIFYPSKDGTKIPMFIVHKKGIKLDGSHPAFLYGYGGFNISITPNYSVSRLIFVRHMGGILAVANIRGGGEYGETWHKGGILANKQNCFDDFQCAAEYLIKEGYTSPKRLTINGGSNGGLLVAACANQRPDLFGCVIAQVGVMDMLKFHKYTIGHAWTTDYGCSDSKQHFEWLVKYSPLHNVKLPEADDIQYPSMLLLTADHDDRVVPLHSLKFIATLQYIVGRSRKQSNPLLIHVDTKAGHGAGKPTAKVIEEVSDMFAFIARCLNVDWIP
# Method: as §1
# DPPIV = DPPIV (Homo sapiens (Human), UniProt P27487); assay: DPPIV inhibition assay (recombinant enzyme, H-Gly-Pro-AMC substrate); format: biochemical; conditions: for IC50: Table 4, read-out: DPPIV IC50
# Sequence of DPPIV (P27487 whole entry): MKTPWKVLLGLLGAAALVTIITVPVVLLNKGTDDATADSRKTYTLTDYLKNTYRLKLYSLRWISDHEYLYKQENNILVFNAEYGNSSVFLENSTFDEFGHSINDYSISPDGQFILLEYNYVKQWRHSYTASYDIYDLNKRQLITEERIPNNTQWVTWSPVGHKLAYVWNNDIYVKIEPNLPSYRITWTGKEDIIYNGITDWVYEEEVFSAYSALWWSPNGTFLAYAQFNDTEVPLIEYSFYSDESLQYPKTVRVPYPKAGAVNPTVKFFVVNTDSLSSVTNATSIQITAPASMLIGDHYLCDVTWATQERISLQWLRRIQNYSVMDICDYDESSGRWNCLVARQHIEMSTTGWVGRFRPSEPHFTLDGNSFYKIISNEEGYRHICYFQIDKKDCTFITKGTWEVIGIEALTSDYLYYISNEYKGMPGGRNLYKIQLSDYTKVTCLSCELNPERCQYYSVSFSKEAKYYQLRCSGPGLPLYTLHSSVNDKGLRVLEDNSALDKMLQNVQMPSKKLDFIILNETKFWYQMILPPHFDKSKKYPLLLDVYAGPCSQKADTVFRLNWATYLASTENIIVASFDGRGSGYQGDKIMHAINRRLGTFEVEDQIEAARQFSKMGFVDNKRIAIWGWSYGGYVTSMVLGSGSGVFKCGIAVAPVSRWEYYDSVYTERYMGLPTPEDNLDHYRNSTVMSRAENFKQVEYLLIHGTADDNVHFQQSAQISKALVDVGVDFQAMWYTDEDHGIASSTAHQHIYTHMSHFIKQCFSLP
# Method: as §1
# PSMA = PSMA (Homo sapiens (Human), UniProt Q04609); assay: PSMA competitive inhibition assay (NAAG substrate, LNCaP cell lysate); format: biochemical
# Sequence of PSMA (Q04609 whole entry): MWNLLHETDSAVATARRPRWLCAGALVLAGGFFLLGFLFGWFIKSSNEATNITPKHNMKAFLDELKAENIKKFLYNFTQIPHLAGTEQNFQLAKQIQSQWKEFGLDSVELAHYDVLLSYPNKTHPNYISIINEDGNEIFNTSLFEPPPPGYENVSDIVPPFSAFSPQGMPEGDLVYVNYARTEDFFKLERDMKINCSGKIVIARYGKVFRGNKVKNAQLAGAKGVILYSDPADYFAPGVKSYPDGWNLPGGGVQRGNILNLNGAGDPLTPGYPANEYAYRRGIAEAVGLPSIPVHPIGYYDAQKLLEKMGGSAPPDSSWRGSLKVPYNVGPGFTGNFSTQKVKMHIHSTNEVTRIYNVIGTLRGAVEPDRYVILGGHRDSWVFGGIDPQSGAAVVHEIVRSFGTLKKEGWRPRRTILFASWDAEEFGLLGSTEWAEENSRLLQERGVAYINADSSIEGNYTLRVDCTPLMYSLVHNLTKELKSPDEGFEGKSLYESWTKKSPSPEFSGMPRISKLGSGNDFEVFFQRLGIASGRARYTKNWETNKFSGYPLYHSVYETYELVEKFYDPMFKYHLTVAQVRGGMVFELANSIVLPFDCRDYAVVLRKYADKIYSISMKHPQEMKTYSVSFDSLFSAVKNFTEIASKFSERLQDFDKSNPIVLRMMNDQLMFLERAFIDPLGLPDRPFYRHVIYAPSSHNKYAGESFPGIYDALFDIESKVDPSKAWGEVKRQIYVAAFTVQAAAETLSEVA
# Method: as §1
# MDA-MB-231 = assay: Biodistribution in MB-MDA-231 NSG mice; format: in vivo, mouse; set-up: Biodistribution: Spleen / Biodistribution: Fat / Biodistribution: Kidney / Biodistribution: Muscle / Biodistribution: Small Intestine / Biodistribution: Salivary Gland / Biodistribution: Lacrimal gland / Biodistribution: Bladder / Biodistribution: Bone / Biodistribution: MDA-MB-231 / Biodistribution: Blood / Biodistribution: Heart / Biodistribution: Lung / Biodistribution: Liver / Biodistribution: Stomach: unit not given here
# FAP+ HT-1080 tumors = assay: Small animal PET/CT of ^68Ga-labeled SB-FAP-01 in FAP+ HT-1080 and wild type tumors; format: in vivo; conditions: 60 minutes after intravenous administration
# Method: Small animal PET/CT imaging was performed at 60 minutes after intravenous administration to this mirroring experimental model; and […]
# [1] = PET imaging and biodistribution in SK-MEL-24 tumor-bearing mice; format: in vivo, mouse; conditions: mouse, intravenous, SK-MEL-24 in NSG mice, 20 μCi; for tissue uptake at 1 h: n=3
# Method: (§2) Cell uptake assays, flow cytometry, and IHC were performed as described previously. Banerjee et al., 2019; Nimmagadda et al., 2018. PET imaging and biodistribution Sequential PET imaging and biodistribution studies were conducted to quantify and validate PET imaging data. Briefly, tumor-bearing mice were administrated approximately 7.4 MBq of radiotracer in 150 μL saline via tail-vein injection. They were randomized into the indicated groups of 3-4 mice before radiotracer injection.
# (§3) In Experiment 2, SK-MEL-24 tumor-bearing mice (n=3-4) were investigated.
# (§4) Dose: 20 μCi, n=3 at 1 h and n=4 at 2 and 4 h per group, Tumor model: SK-MEL-24 in NSG mice
# SK-MEL-24 tumor = assay: as above; format: in vivo, mouse; conditions: SK-MEL-24 in NSG mice, 20 μCi, in %ID/g
# Method: as §2, §3, §4
# Sequence of FAP (Q12884 whole entry): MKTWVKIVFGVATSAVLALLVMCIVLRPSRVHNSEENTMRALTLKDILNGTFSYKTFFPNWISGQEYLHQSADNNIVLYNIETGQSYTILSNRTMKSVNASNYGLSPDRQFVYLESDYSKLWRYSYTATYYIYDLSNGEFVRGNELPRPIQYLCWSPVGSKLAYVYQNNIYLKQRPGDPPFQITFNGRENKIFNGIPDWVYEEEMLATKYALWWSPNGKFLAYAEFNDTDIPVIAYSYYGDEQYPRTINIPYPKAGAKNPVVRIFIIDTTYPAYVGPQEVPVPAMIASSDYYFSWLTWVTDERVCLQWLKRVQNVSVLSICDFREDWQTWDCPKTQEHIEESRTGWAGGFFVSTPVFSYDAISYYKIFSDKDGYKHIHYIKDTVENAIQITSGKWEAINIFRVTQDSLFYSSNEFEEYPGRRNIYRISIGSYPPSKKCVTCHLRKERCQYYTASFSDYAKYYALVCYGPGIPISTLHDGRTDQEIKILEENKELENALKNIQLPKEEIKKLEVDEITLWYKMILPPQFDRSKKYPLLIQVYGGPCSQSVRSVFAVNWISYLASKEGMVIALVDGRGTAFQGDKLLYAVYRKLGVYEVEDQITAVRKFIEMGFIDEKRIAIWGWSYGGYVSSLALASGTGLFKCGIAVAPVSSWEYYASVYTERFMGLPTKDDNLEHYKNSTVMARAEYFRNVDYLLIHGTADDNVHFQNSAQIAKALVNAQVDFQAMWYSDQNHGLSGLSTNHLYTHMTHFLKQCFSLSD
structure (smiles),measurement,setting,value
N#C[C@@H]1CCCN1C(=O)CNC(=O)c1ccnc2ccc(OCCCNC(=O)CCc3cn(CCOCCOCCOCCC(=O)N[C@@H](CCCCNC(=O)CN4CCN(CC(=O)O)CCN(CC(=O)O)CC4)C(=O)NCCCCC(=O)N(CCCC[C@H](NC(=O)N[C@@H](CCC(=O)O)C(=O)O)C(=O)O)Cc4ccc(Br)cc4)nn3)cc12 [SB-FAP-02],IC50,FAP; Table 4,1.53 nM
same,Ki,"FAP; Table 4, read-out: FAP Ki",0.31 nM
same,Ki,FAP; read-out: FAP Ki,0.31 nM
same,Ki,PREP,116000 nM
same,IC50,PREP,580 nM
same,Ki,DPPIV,1760 nM
same,IC50,DPPIV,8810 nM
same,IC50,PSMA; Table 4,90 nM
same,Ki,"PSMA; Table 4, read-out: PSMA Ki",18.1 nM
same,Ki,PSMA; read-out: PSMA Ki,18.1 nM
same,"PSMA binding affinity, fold lower than FP-L2",PSMA; relative to FP-L2,2 fold
same,Biodistribution: Blood,MDA-MB-231; At 1 h nude mice,8.47 ± 0.16
same,Biodistribution: Bone,MDA-MB-231; At 1 h nude mice,3.34 ± 0.32
same,Biodistribution: Fat,MDA-MB-231; At 1 h nude mice,0.61 ± 0.31
same,Biodistribution: Heart,MDA-MB-231; At 1 h nude mice,3.46 ± 0.07
same,Biodistribution: Kidney,MDA-MB-231; At 1 h nude mice,12.14 ± 1.39
same,Biodistribution: Lacrimal gland,MDA-MB-231; At 1 h nude mice,6.61 ± 1.23
same,Biodistribution: Liver,MDA-MB-231; At 1 h nude mice,6.74 ± 0.16
same,Biodistribution: Lung,MDA-MB-231; At 1 h nude mice,5.16 ± 0.04
same,Biodistribution: MDA-MB-231,MDA-MB-231; At 1 h nude mice,3.60 ± 0.32
same,Biodistribution: Muscle,MDA-MB-231; At 1 h nude mice,1.59 ± 0.07
same,Biodistribution: Pancreas,MDA-MB-231; At 1 h nude mice,4.95 ± 0.24
same,Biodistribution: Salivary Gland,MDA-MB-231; At 1 h nude mice,7.75 ± 0.99
same,Biodistribution: Small Intestine,MDA-MB-231; At 1 h nude mice,6.69 ± 0.82
same,Biodistribution: Spleen,MDA-MB-231; At 1 h nude mice,2.38 ± 0.04
same,Biodistribution: Stomach,MDA-MB-231; At 1 h nude mice,2.72 ± 0.30
same,Biodistribution: Bladder,MDA-MB-231; At 2 h NSG mice,1.82 ± 0.26
"N#C[C@@H]1CCCN1C(=O)CNC(=O)c1ccnc2ccc(OCCCNC(=O)CCc3cn(CCOCCOCCOCCC(=O)N[C@@H](CCCCNC(=O)CN4CCN(CC(=O)O)CCN(CC(=O)O)CCN(CC(=O)O)CC4)C(=O)NCCCCC(=O)N(CCCC[C@H](NC(=O)N[C@@H](CCC(=O)O)C(=O)O)C(=O)O)Cc4ccc(Br)cc4)nn3)cc12 [SB-FAP-01, (14S,27S,31S)-22-(4-bromobenzyl)-1-(4-(3-((3-((4-((2-((S)-2-cyanopyrrolidin-1-yl)-2-oxoethyl)carbamoyl)quinolin-6-yl)oxy)propyl)amino)-3-oxopropyl)-1H-1,2,3-triazol-1-yl)-12,15,21,29-tetraoxo-14-(4-(2-(4,7,10-tris(carboxymethyl)-1,4,7,10-tetraazacyclododecan-1-yl)acetamido)butyl)-3,6,9-trioxa-13,16,22,28,30-pentaazatritriacontane-27,31,33-tricarboxylic acid]",Ki,"FAP; 95% CI, read-out: FAP Binding affinity Ki (95% CI)",0.25 to 0.51 nM
same,IC50,FAP; Table 4,1.79 nM
same,Ki,"FAP; Table 4, read-out: FAP Ki",0.36 nM
same,Ki,FAP; read-out: FAP Binding affinity Ki,0.36 nM
same,IC50,PREP,350 nM
same,IC50,DPPIV,16900 nM
same,Ki,"PSMA; 95% CI, read-out: PSMA Binding affinity Ki (95% CI)",7.3 to 37.9 nM
same,IC50,PSMA; Table 4,83.2 nM
same,Ki,"PSMA; Table 4, read-out: PSMA Ki",16.6 nM
same,Ki,PSMA; read-out: PSMA Binding affinity Ki,16.6 nM
same,PET/CT tumor imaging,FAP+ HT-1080 tumors,"able to image tumors derived from FAP+ HT-1080 human fibrosis cells engineered to overexpressed FAP, but not those which are not"
N#C[C@@H]1CCCN1C(=O)CNC(=O)c1ccnc2ccc(OCCCNC(=O)CCc3cn(CCOCCOCCOCCOCCOCCOCCC(=O)N[C@@H](CCCCNC(=O)CN4CCN(CC(=O)O)CCN(CC(=O)O)CC4)C(=O)NCCCCC(=O)N(CCCC[C@H](NC(=O)N[C@@H](CCC(=O)O)C(=O)O)C(=O)O)Cc4ccc(Br)cc4)nn3)cc12,tissue uptake at 1 h,"[1]; bladder, read-out: Biodistribution: Bladder",3.53 ± 0.52 %ID/g
same,tissue uptake at 1 h,"[1]; lacrimal gland, read-out: Biodistribution: Lac gl",9.2 ± 1.74 %ID/g
same,tissue uptake at 2 h,"[1]; lacrimal gland, 2 h, n=4, read-out: Biodistribution: Lac gl",7 ± 2.22 %ID/g
same,tissue uptake at 4 h,"[1]; lacrimal gland, n=4, read-out: Biodistribution: Lac gl",3.01 ± 1.94 %ID/g
same,tissue uptake at 1 h,"[1]; salivary gland, read-out: Biodistribution: Sal gl",12.6 ± 2.46 %ID/g
same,tissue uptake at 4 h,"[1]; salivary gland, n=4, read-out: Biodistribution: Sal gl",4.47 ± 0.89 %ID/g
same,tissue uptake at 4 h,"[1]; small intestine, n=4, read-out: Biodistribution: Sm in",3.54 ± 0.57 %ID/g
same,Biodistribution: Blood,"SK-MEL-24 tumor; 1 h, n=3",9.73 ± 0.29
same,Biodistribution: Bone,"SK-MEL-24 tumor; 1 h, n=3",6.00 ± 0.27
same,Biodistribution: Fat,"SK-MEL-24 tumor; 1 h, n=3",0.80 ± 0.31
same,Biodistribution: Heart,"SK-MEL-24 tumor; 1 h, n=3",4.36 ± 0.23
same,Biodistribution: Kidney,"SK-MEL-24 tumor; 1 h, n=3",8.08 ± 1.48
same,Biodistribution: Liver,"SK-MEL-24 tumor; 1 h, n=3",5.30 ± 0.77
same,Biodistribution: Lung,"SK-MEL-24 tumor; 1 h, n=3",7.30 ± 1.16
same,Biodistribution: Muscle,"SK-MEL-24 tumor; 1 h, n=3",2.99 ± 0.18
same,Biodistribution: Panc,"SK-MEL-24 tumor; 1 h, n=3",9.98 ± 0.99
same,Biodistribution: SKMEL24,"SK-MEL-24 tumor; 1 h, n=3",13.25 ± 1.32
same,Biodistribution: Sm in,"SK-MEL-24 tumor; 1 h, n=3",6.52 ± 0.85
same,Biodistribution: Spleen,"SK-MEL-24 tumor; 1 h, n=3",3.06 ± 0.46
same,Biodistribution: Stomach,"SK-MEL-24 tumor; 1 h, n=3",3.29 ± 1.04
same,Biodistribution: Bladder,"SK-MEL-24 tumor; 2 h, n=4",4.76 ± 2.68
same,Biodistribution: Blood,"SK-MEL-24 tumor; 2 h, n=4",6.36 ± 0.89
same,Biodistribution: Bone,"SK-MEL-24 tumor; 2 h, n=4",5.61 ± 1.73
same,Biodistribution: Fat,"SK-MEL-24 tumor; 2 h, n=4",0.91 ± 0.83
same,Biodistribution: Heart,"SK-MEL-24 tumor; 2 h, n=4",2.92 ± 0.27
same,Biodistribution: Kidney,"SK-MEL-24 tumor; 2 h, n=4",8.05 ± 1.27
same,Biodistribution: Liver,"SK-MEL-24 tumor; 2 h, n=4",5.82 ± 0.72
same,Biodistribution: Lung,"SK-MEL-24 tumor; 2 h, n=4",5.76 ± 0.57
same,Biodistribution: Muscle,"SK-MEL-24 tumor; 2 h, n=4",2.24 ± 0.42
same,Biodistribution: Panc,"SK-MEL-24 tumor; 2 h, n=4",6.66 ± 0.38
same,Biodistribution: SKMEL24,"SK-MEL-24 tumor; 2 h, n=4",12.48 ± 1.03
same,Biodistribution: Sm in,"SK-MEL-24 tumor; 2 h, n=4",5.44 ± 1.52
same,Biodistribution: Spleen,"SK-MEL-24 tumor; 2 h, n=4",2.56 ± 0.40
same,Biodistribution: Stomach,"SK-MEL-24 tumor; 2 h, n=4",3.20 ± 0.85
same,Biodistribution: Bladder,"SK-MEL-24 tumor; 4 h, n=4",4.63 ± 1.72
same,Biodistribution: Blood,"SK-MEL-24 tumor; 4 h, n=4",3.29 ± 0.07
same,Biodistribution: Bone,"SK-MEL-24 tumor; 4 h, n=4",3.42 ± 0.92
same,Biodistribution: Fat,"SK-MEL-24 tumor; 4 h, n=4",0.49 ± 0.14
same,Biodistribution: Heart,"SK-MEL-24 tumor; 4 h, n=4",1.87 ± 0.26
same,Biodistribution: Kidney,"SK-MEL-24 tumor; 4 h, n=4",7.26 ± 3.43
same,Biodistribution: Liver,"SK-MEL-24 tumor; 4 h, n=4",6.03 ± 1.00
same,Biodistribution: Lung,"SK-MEL-24 tumor; 4 h, n=4",4.55 ± 0.51
same,Biodistribution: Muscle,"SK-MEL-24 tumor; 4 h, n=4",1.32 ± 0.22
same,Biodistribution: Panc,"SK-MEL-24 tumor; 4 h, n=4",4.48 ± 0.88
same,Biodistribution: SKMEL24,"SK-MEL-24 tumor; 4 h, n=4",9.82 ± 3.39
same,Biodistribution: Spleen,"SK-MEL-24 tumor; 4 h, n=4",2.69 ± 0.44
same,Biodistribution: Stomach,"SK-MEL-24 tumor; 4 h, n=4",2.23 ± 0.58

# — patent publication US20240382629A1, “HETEROBIVALENT AND HOMOBIVALENT AGENTS TARGETING FIBROBLAST ACTIVATION PROTEIN ALPHA AND/OR PROSTATE-SPECIFIC MEMBRANE ANTIGEN” (The Johns Hopkins University, priority 2021, published 2024)
